Measurements as given in patent EP4775580A1, “COMPOUND, PHARMACEUTICAL COMPOSITION COMPRISING SAME, AND USE THEREOF” (Euregen Biopharma Co., Ltd., priority 2023, dated 2025).
Where two headings read alike, the source gives them in different places.

Legend:
hERG potassium channel = biological target: T1, hERG potassium channel (Homo sapiens, UniProt Q12809); experiment: Inhibition of hERG current, manual whole-cell patch-clamp in HEK293 cells stably transfected with hERG; format: cell-based
T1 construct: expressed in transfected cells; host or cells: HEK293 (HEK-293-hERG)
T1 sequence (Q12809 whole entry): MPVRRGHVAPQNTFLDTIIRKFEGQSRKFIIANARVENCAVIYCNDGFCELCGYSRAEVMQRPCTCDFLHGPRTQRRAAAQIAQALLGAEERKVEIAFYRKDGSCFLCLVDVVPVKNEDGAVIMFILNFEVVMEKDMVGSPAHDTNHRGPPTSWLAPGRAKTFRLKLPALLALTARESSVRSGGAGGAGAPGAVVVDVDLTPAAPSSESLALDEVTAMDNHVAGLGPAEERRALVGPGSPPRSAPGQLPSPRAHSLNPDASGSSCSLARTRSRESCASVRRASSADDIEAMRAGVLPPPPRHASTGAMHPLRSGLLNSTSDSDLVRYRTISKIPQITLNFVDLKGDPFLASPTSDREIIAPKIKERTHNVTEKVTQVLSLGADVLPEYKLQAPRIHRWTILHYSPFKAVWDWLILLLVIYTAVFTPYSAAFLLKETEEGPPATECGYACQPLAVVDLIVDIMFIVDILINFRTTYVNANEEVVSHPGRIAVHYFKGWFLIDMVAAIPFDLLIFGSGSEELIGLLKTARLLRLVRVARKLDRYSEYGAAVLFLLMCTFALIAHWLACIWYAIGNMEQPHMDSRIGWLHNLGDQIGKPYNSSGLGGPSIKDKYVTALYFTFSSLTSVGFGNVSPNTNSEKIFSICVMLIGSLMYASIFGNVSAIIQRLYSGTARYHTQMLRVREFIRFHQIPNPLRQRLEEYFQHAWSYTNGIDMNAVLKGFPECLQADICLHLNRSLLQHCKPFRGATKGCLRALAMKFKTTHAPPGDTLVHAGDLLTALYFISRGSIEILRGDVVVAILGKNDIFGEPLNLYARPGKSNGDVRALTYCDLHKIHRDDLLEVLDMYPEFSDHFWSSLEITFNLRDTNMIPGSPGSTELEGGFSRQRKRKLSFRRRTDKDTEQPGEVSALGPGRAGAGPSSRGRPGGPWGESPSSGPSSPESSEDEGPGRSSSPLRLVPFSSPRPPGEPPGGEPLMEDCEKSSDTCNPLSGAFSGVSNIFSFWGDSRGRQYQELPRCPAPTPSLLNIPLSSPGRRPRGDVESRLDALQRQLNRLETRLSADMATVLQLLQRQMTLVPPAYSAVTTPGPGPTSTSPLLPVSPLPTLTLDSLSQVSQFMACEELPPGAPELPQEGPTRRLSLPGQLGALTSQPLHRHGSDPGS
Text: • 1. Objective: To evaluate the inhibitory effect of test compounds on hERG current in HEK293 cells stably transfected with the hERG potassium channel using manual patch-clamp technique. • 2. Experimental Materials: The test compound was Compound 3 prepared according to the examples of the present invention; the positive control compound SNDX-5613 was purchased from Chengdu Zhihui Zhongxin Biomedical Co., Ltd.; HEK293 cells were obtained from Procell (Cat. #CL-0001). […]
Following establishment of the whole-cell recording configuration, the holding potential was maintained at -80 mV. […] Once the recorded hERG current stabilized, compounds were administered via continuous extracellular perfusion from low to high concentrations (0.3, 1, 3, 10, and 30 µmol/L). […]
Data Acquisition and Analysis: Experimental data were acquired using Clampex software and analyzed using Clampfit software. First, the current following each compound concentration was normalized to the control current ((Peak tail current (compound))/(Peak tail current (blank))) × 100 [formula] , then the inhibition rate for each compound concentration was calculated (1−(Peak tail current (compound))/(Peak tail current (blank))) × 100 [formula] . […]

Menin-M327I = biological target: T2, Menin-M327I (Homo sapiens, UniProt O00255, M322I); experiment: Fluorescence polarization assay of Menin binding to MLL peptide, M327I mutant; conditions: FP, 8 nM Menin, 4 nM MLL peptide
T2 sequence (O00255 1-615 isoform O00255-1 M327I): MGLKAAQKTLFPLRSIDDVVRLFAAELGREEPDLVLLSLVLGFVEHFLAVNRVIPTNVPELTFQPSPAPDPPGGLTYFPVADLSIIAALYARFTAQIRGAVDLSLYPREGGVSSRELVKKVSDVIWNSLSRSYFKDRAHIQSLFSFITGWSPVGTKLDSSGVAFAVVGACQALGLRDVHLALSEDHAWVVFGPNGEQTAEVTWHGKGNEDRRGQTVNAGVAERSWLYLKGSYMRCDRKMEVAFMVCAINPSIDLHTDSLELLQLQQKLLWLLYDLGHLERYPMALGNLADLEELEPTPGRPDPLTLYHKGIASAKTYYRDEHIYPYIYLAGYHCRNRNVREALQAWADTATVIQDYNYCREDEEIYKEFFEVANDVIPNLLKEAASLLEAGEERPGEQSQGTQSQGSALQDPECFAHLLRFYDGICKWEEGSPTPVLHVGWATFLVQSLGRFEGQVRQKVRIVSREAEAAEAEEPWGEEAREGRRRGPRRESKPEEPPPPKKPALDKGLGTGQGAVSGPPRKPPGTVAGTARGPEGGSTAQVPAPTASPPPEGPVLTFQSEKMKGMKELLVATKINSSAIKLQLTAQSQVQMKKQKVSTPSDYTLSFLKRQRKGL
Text: • 1. Objective: To evaluate the inhibitory activity of compounds against wild-type Menin protein (Menin-WT) and its mutant variants (Menin-M327V, Menin-M327I, Menin-T349M, Menin-S160T, Menin-S160C, Menin-G331R, and Menin-G331D). • 2. Experimental Principle: The experiment employed fluorescence polarization (FP) to detect the binding of wild-type Menin protein and its mutant variants to MLL peptide. In the absence of inhibitors, binding of wild-type Menin protein and its mutant variants to MLL peptide generates a high FP signal; upon addition of inhibitors, the binding between Menin proteins and MLL peptide is disrupted, resulting in a low FP signal. • 3. Experimental Materials: Final concentration of wild-type Menin protein and its mutant variants: 8 nM; final concentration of MLL peptide: 4 nM. Assay buffer: 50 mM Tris-HCl (pH 8.0), 120 mM NaCl, 0.005% CA-630, 2 mM DTT. • 4. […] The plate was centrifuged at 1000 rpm for 60 seconds. Subsequently, 10 µL of MLL peptide was added to each assay well. The plate was centrifuged at 1000 rpm for 60 seconds and sealed with a sealing membrane. After incubation at 23°C for 60 minutes, the plate was read using a PerkinElmer Envision reader. Data Analysis: [formula]
Curve fitting: XLFIT software was used for curve fitting, employing a four-parameter logistic model with percent inhibition versus log(compound concentration) as variables.

Compound | IC50 (hERG potassium channel; HEK293-hERG cells, manual patch-clamp, 0.3-30 µmol/L, room temperature, read-out: IC50 (hERG tail current)) | IC50 (Menin-M327I) | IC50 (hERG potassium channel)
CCN(C(=O)c1cc(F)ccc1Oc1cncnc1N1CC2(CCN(C[C@H]3CC[C@H](NS(=O)(=O)CC)CC3)CC2)C1)C(C)C [SNDX-5613, revumenib] | 7590 nM | 928 nM | –
CCN(C(=O)c1cc(F)ccc1N1CCN([C@@H]2CCN([C@H](CCCN(C)CCOC)C(C)C)C2)c2ncncc21)C(C)C [Example 3] | – | 40.7 nM | > 30000 nM
